Key:
[1] = for surface tension liquid-gas: 298.15 K, Drop volume; for mass density: 298.1 K, 101.33 kPa, Liquid, Vibrating tube method
[2] = xn = mol fraction of the nth substance listed; details: 298.15 K, Drop volume

O [water]
Details	surface tension liquid-gas [mN/m]
[1]	71.35

CCCCOS(=O)(=O)[O-].CC[n+]1ccn(C)c1 [3-ethyl-1-methylimidazolium butyl sulfate] + O
[2]
Details	surface tension liquid-gas [mN/m]
x1 = 0.0389	44.48
x1 = 0.0403	45.93
x1 = 0.0579	40.83
x1 = 0.0602	41.7
x1 = 0.0758	39.85
x1 = 0.0805	39.96
x1 = 0.0934	39.08
x1 = 0.0987	39.17
x1 = 0.1004	39.42
x1 = 0.101	39.84
x1 = 0.12	39.74
x1 = 0.133	40.29
x1 = 0.1464	40.85
x1 = 0.1716	41.83
x1 = 0.1947	41.59
x1 = 0.2004	41.48
x1 = 0.2585	40.83
x1 = 0.2973	40.81
x1 = 0.3957	40.04
x1 = 0.4017	40.31
x1 = 0.4764	39.93
x1 = 0.4992	40.01
x1 = 0.5868	39.89
x1 = 0.703	39.82
x1 = 0.7997	39.77
x1 = 0.9034	39.67
x1 = 1	39.62

CCCCOS(=O)(=O)[O-].CC[n+]1ccn(C)c1 [3-ethyl-1-methylimidazolium butyl sulfate]
[1]
Details	mass density [kg/m3]	surface tension liquid-gas [mN/m]
–	1175.65	39.64

CCO [ethanol] + CCOS(=O)(=O)[O-].CCn1cc[n+](C)c1
Details	surface tension liquid-gas [mN/m]
[2], x2 = 0	22.01

CCO [ethanol]
Details	surface tension liquid-gas [mN/m]
[1]	22.01

CCOS(=O)(=O)[O-].CCn1cc[n+](C)c1 [1-ethyl-3-methylimidazolium ethyl sulfate] + O
[2]
Details	surface tension liquid-gas [mN/m]
x1 = 0.005	67.23
x1 = 0.0199	62.42
x1 = 0.0402	59.68
x1 = 0.06	57.64
x1 = 0.1006	55.64
x1 = 0.202	52.23
x1 = 0.3017	50.45
x1 = 0.4046	49.42
x1 = 0.5026	48.79
x1 = 0.6066	48.3
x1 = 0.6957	47.94
x1 = 0.7939	47.72
x1 = 0.9041	47.39
x1 = 1	47.16

CCOS(=O)(=O)[O-].CCn1cc[n+](C)c1 [1-ethyl-3-methylimidazolium ethyl sulfate]
[1]
Details	mass density [kg/m3]	surface tension liquid-gas [mN/m]
–	1238.3	47.13

CCCCCCOS(=O)(=O)[O-].CC[n+]1ccn(C)c1 [3-ethyl-1-methyl-1H-imidazolium hexyl sulfate] + CCO
[2]
Details	surface tension liquid-gas [mN/m]
x1 = 0.03	22.98
x1 = 0.0679	23.87
x1 = 0.0977	24.48
x1 = 0.1253	25
x1 = 0.2267	26.53
x1 = 0.3138	27.69
x1 = 0.386	28.6
x1 = 0.4691	29.48
x1 = 0.5946	30.86
x1 = 0.7189	32.08
x1 = 0.7951	32.84
x1 = 0.9409	34.31
x1 = 1	34.77

CCOS(=O)(=O)[O-].CCn1cc[n+](C)c1 [1-ethyl-3-methylimidazolium ethyl sulfate] + CCO
[2]
Details	surface tension liquid-gas [mN/m]
x1 = 0.0988	24.18
x1 = 0.2056	26.37
x1 = 0.3025	28.52
x1 = 0.3989	30.68
x1 = 0.4999	32.99
x1 = 0.5984	35.4
x1 = 0.703	38.12
x1 = 0.8252	41.48
x1 = 0.9048	43.81
x1 = 1	47.16

CCCCCCCCOS(=O)(=O)[O-].CCn1cc[n+](C)c1 [1-ethyl-3-methylimidazolium octyl sulfate] + CCO
[2]
Details	surface tension liquid-gas [mN/m]
x1 = 0.0399	22.89
x1 = 0.0712	23.71
x1 = 0.098	24.48
x1 = 0.1595	25.82
x1 = 0.215	26.62
x1 = 0.2445	27.01
x1 = 0.2985	27.64
x1 = 0.3506	28.18
x1 = 0.4002	28.61
x1 = 0.4582	28.92
x1 = 0.5059	29.14
x1 = 0.6269	29.6
x1 = 0.7387	29.96
x1 = 0.8317	30.5
x1 = 0.9164	30.8
x1 = 0.9432	30.79
x1 = 0.953	30.82
x1 = 1	30.91

O [water] + CCOS(=O)(=O)[O-].CCn1cc[n+](C)c1
Details	surface tension liquid-gas [mN/m]
[2], x2 = 0	71.35

CCCCCCOS(=O)(=O)[O-].CC[n+]1ccn(C)c1 [3-ethyl-1-methyl-1H-imidazolium hexyl sulfate]
[1]
Details	mass density [kg/m3]	surface tension liquid-gas [mN/m]
–	1129.6	34.77

CCCCCCCCOS(=O)(=O)[O-].CCn1cc[n+](C)c1 [1-ethyl-3-methylimidazolium octyl sulfate] + O
[2]
Details	surface tension liquid-gas [mN/m]
x1 = 0.0002	56.92
x1 = 0.0007	42.45
x1 = 0.005	37.84
x1 = 0.011	37.19
x1 = 0.0198	36.69
x1 = 0.0349	35.3
x1 = 0.0506	34.96
x1 = 0.0774	33.87
x1 = 0.0937	33.62
x1 = 0.2846	31.01
x1 = 0.4	30.48
x1 = 0.5127	30.72
x1 = 0.5677	30.67
x1 = 0.6347	30.71
x1 = 0.6934	30.74
x1 = 0.7018	30.77
x1 = 0.7373	30.7
x1 = 0.766	30.81
x1 = 0.8287	30.71
x1 = 0.8904	30.79
x1 = 1	30.91

CCCCOS(=O)(=O)[O-].CC[n+]1ccn(C)c1 [3-ethyl-1-methylimidazolium butyl sulfate] + CCO
[2]
Details	surface tension liquid-gas [mN/m]
x1 = 0.066	23.6
x1 = 0.1347	25.01
x1 = 0.1536	25.36
x1 = 0.2904	27.76
x1 = 0.4691	30.63
x1 = 0.4993	31.05
x1 = 0.6866	33.99
x1 = 0.7916	35.75
x1 = 0.8794	37.35
x1 = 1	39.62

CCCCCCOS(=O)(=O)[O-].CC[n+]1ccn(C)c1 [3-ethyl-1-methyl-1H-imidazolium hexyl sulfate] + O
[2]
Details	surface tension liquid-gas [mN/m]
x1 = 0.0005	62.58
x1 = 0.0008	58.45
x1 = 0.002	49.54
x1 = 0.005	42.13
x1 = 0.0196	40.27
x1 = 0.0396	39.55
x1 = 0.0602	38.88
x1 = 0.0797	38.25
x1 = 0.0997	37.79
x1 = 0.1997	36.16
x1 = 0.3009	35.59
x1 = 0.4034	35.25
x1 = 0.4957	35.05
x1 = 0.5943	34.95
x1 = 0.705	34.87
x1 = 0.7893	34.82
x1 = 0.8997	34.77
x1 = 1	34.77

CCCCCCCCOS(=O)(=O)[O-].CCn1cc[n+](C)c1 [1-ethyl-3-methylimidazolium octyl sulfate]
[1]
Details	mass density [kg/m3]	surface tension liquid-gas [mN/m]
–	1093.75	31.29

Source: the NIST ThermoML archive (doi:10.1016/j.jct.2012.01.023)
